Values after ≈ are worked out from the molar mass of the structure shown. Active and inactive are the calls of the source. The calls are words filed in the database; no cut-off is given here.
Columns and labels:
HCT-116 [1] = test: Cytotoxicity against human HCT116 cells assessed as cell viability after 5 days by MTT assay relative to control; assay type: functional, cell-based; settings: HCT-116, 120 h
Candida albicans = test: Antifungal activity against Candida albicans after 16 hrs by serial dilution method; assay type: functional
HCT-116 [2] = test: Cytotoxicity against human HCT116 cells assessed as cell viability at 100 ug/mL after 5 days by MTT assay relative to control; assay type: functional, cell-based

Structure (SMILES) | IC50 (HCT-116 [1]) | MIC (Candida albicans) | Activity (HCT-116 [2]) | Activity (Candida albicans)
CCCCCCC/C=C/C=C/C(=O)N[C@H](C(=O)N[C@H]1C[C@@H](O)CCNC(=O)/C=C/[C@H](C)NC1=O)[C@@H](C)O [GLIDOBACTIN A] | 33.3 nM | 2 µg/mL (≈ 3.84 µM) |  | 
CCCCCCC/C=C/C=C/C(=O)N[C@H](C(=O)N[C@@H](CCCCN)C(=O)N[C@@H](C)C(O)CC(=O)O)[C@@H](C)O (stereo partly specified) |  |  | inactive | inactive
CCCCCCC/C=C/C=C/C(=O)N[C@H](C(=O)N[C@H]1CCCCNC(=O)/C=C/[C@H](C)NC1=O)[C@@H](C)O [LUMINMYCIN A] | 91.8 nM |  |  | inactive

From ChEMBL document CHEMBL2146428, “Luminmycins A-C, cryptic natural products from Photorhabdus luminescens identified by heterologous expression in Escherichia coli” (J Nat Prod, 2012)
